From US8507464B2, “Phosphoramidate alkylator prodrugs” (Threshold Pharmaceuticals, Inc., priority 2005, dated 2013)
Read-outs that look alike come from different tables or passages of the source.

Key:
NCI-H460 cells [1] = assay: Antiproliferation assay - oxygen dependence; format: cell-based, human
Description: . […] The calculated IC50 values (μM) are tabulated in Table Y1 (H460 cells) or Table Y2 (HT29 cells) below.

[2] = format: physicochemical; settings: glassy carbon, Ag/AgCl reference; for Reduction Potentials, 100 mV/sec: scan rate 100 mV/sec; for Reduction Potentials, 10,000 mV/sec: scan rate 10,000 mV/sec
NCI-H460 cells [3] = assay: Antiproliferation assay (Alamar Blue), anoxia vs air
[4] = system: mouse (MLM) liver microsomal proteins; format: in vitro ADME; settings: Table 2B
[5] = Plasma stability (Table 2B)
HT29 cells = assay: Antiproliferation assay (Alamar Blue), anoxia vs air; settings: Homo sapiens, HT-29, 2 h
MES-SA cells = assay: as above; settings: Homo sapiens, 2 h
H460 cell line = assay: Anti-proliferation assay, hypoxia vs normoxia (Table 1A); settings: for IC50: Homo sapiens; for HCR P: ratio of IC50 in normoxia and hypoxia
HT29 = assay: Anti-proliferation assay, hypoxia vs normoxia (Table 1B); settings: for IC50: Homo sapiens
HCT116 = assay: as above; settings: for IC50: Homo sapiens
[6] = system: H460 lung carcinoma spheroids; assay: Spheroid model, clonogenic survival; settings: read-out: IC90 H460 Spheroid 10% O2; 2 h exposure, 10% O2
in vivo [7] = assay: in vivo
in vivo [8] = settings: CD-1, mouse
NCI-H460 cells [9] = assay: Clonogenic assay - oxygen dependence; settings: Homo sapiens
[10] = Homo sapiens, NCI-H460, read-out: IC50 in H460 cells, 0.3% O2
[11] = Homo sapiens, NCI-H460, read-out: IC50 in H460 cells, 0.6% O2
[12] = Homo sapiens, NCI-H460, read-out: IC50 in H460 cells, Air
[13] = Homo sapiens, NCI-H460, read-out: IC50 in H460 cells, N2
[14] = Homo sapiens, NCI-H460, 2 h, read-out: IC50 H460 Air, air, 2 h exposure
[15] = Homo sapiens, NCI-H460, 2 h, read-out: IC50 H460 Anoxia, anoxia, 2 h exposure
[16] = NCI-H460, read-out: Hypoxia P (proliferation IC50)
[17] = NCI-H460, read-out: Normoxia P (proliferation IC50)
[18] = HT-29, read-out: HT29 P H (proliferation IC50, hypoxia)
[19] = HT-29, read-out: HT29 P N (proliferation IC50, normoxic)
[20] = Homo sapiens, NCI-H460; read-out: IC50 in H460 cells, Air
[21] = Homo sapiens, NCI-H460; read-out: IC50 in H460 cells, N2
[22] = CD-1, Balb/c for Compound 1, mouse, iv

## CC(OP(=O)(NCCBr)NCCBr)c1ccc([N+](=O)[O-])s1 (stereo not drawn) [Compound 88]
NCI-H460 cells [1]; [10]
  IC50: 500 nM
NCI-H460 cells [1]; [11]
  IC50: 200 nM
NCI-H460 cells [1]; [12]
  IC50: 500 nM
NCI-H460 cells [1]; [13]
  IC50: 30 nM
[2]
  Reduction Potentials, 100 mV/sec: −559 mV
  Reduction Potentials, 10,000 mV/sec: −629 mV
NCI-H460 cells [3]; [14]
  IC50: 530 nM
NCI-H460 cells [3]; [15]
  IC50: 30 nM

## O=[N+]([O-])c1ccc(COP(=O)(NCCBr)NCCBr)s1 [Compound 34]
NCI-H460 cells [1]; [10]
  IC50: 1000 nM
NCI-H460 cells [1]; [12]
  IC50: 5000 nM
NCI-H460 cells [1]; [13]
  IC50: 10 nM
[2]
  Reduction Potentials, 100 mV/sec: −584 mV
  Reduction Potentials, 10,000 mV/sec: −663 mV
[4]
  Metabolic stability (MLM) (% at 30 min): 28%
[5]; at 20 min
  Plasma stability (at 20 min): 85%
NCI-H460 cells [3]; [14]
  IC50: 1800 nM
NCI-H460 cells [3]; [15]
  IC50: 10 nM
HT29 cells; read-out: IC50 HT29 Air
  IC50: 57000 nM
HT29 cells; read-out: IC50 HT29 Anoxia
  IC50: 800 nM
MES-SA cells; read-out: IC50 MES-SA Air
  IC50: 10000 nM
MES-SA cells; read-out: IC50 MES-SA Anoxia
  IC50: 130 nM
H460 cell line; [16]
  IC50: < 10 nM
H460 cell line; [17]
  IC50: 1800 nM
H460 cell line
  HCR P: >180
HT29
  HT29 HCR P: 70
HT29; [18]
  IC50: 800 nM
HT29; [19]
  IC50: 57000 nM
HCT116
  HCT116 HCR: 77
HCT116; HCT-116, read-out: HCT116 P H (proliferation IC50, hypoxia)
  IC50: 130 nM
HCT116; HCT-116, read-out: HCT116 P N (proliferation IC50, normoxic)
  IC50: 10000 nM

## N#Cc1cc(COP(=O)(NCCBr)NCCBr)sc1[N+](=O)[O-] [Compound 97]
NCI-H460 cells [1]; Air; read-out: IC50 in H460 cells, Air
  IC50: 20 nM
NCI-H460 cells [1]; N2; read-out: IC50 in H460 cells, N2
  IC50: 6 nM
NCI-H460 cells [1]; read-out: IC50 in H460 cells, 0.6% O2
  IC50: 10 nM
[6]
  IC90: 13000 nM
NCI-H460 cells [3]; read-out: IC50 H460 Air, air, 2 h exposure
  IC50: 100 nM
NCI-H460 cells [3]; read-out: IC50 H460 Anoxia, anoxia, 2 h exposure
  IC50: 10 nM

## CN(CCCl)P(=O)(OCc1cnc([N+](=O)[O-])n1C)N(C)CCCl [Compound 5]
NCI-H460 cells [1]; Homo sapiens, NCI-H460, read-out: IC50 in H460 cells, 0.1% O2
  IC50: 1000 nM
NCI-H460 cells [1]; [11]
  IC50: 1000 nM
NCI-H460 cells [1]; Homo sapiens, NCI-H460, read-out: IC50 in H460 cells, 1% O2
  IC50: 10000 nM
NCI-H460 cells [1]; Homo sapiens, NCI-H460, read-out: IC50 in H460 cells, 10% O2
  IC50: 5000 nM
NCI-H460 cells [1]; [20]
  IC50: 40000 nM
NCI-H460 cells [1]; [21]
  IC50: 30 nM
[2]
  Reduction Potentials, 100 mV/sec: −606 mV
  Reduction Potentials, 10,000 mV/sec: −634 mV
[4]
  Metabolic stability (MLM) (% at 30 min): 5%
[4]; parentheses not explained
  Metabolic stability (MLM), value in parentheses: (20) %
In vivo [7]; CD-1 (Compounds 5, 23, 36), Balb/c (Compound 1), mouse, iv
  clearance: 185 mL/min/kg
In vivo [7]; CD-1, Balb/c for Compound 1, mouse, ip
  Cmax: 3000 ng/mL
In vivo [7]; [22]
  AUC: 4.5 µg·h/mL
  Cmax: 16900 ng/mL
  Vd: 1.25 L/kg
In vivo [7]; CD-1, Balb/c for Compound 1, mouse, iv, t ½, intravenous administration in mice, mice
  half-life: 4.8 min
In vivo [7]; CD-1, mouse, ip
  AUC: 1 µg·h/mL
In vivo [8]; ip, 50 mg/kg
  AUC: 57.4 µg·h/mL
  Cmax: 3000 ng/mL
  Tmax: 5 min
  half-life: 2.56 min
In vivo [8]; iv, 50 mg/kg
  AUC: 270 µg·h/mL
  Cmax: 16900 ng/mL
  Tmax: 5 min
  half-life: 4.67 min
[5]; 30 min
  Plasma stability (% at 30 min): 100%
[5]; parentheses not explained
  Plasma stability, value in parentheses: (85) %
NCI-H460 cells [3]; [14]
  IC50: 6000 nM
NCI-H460 cells [3]; [15]
  IC50: 50 nM
HT29 cells; read-out: IC50 HT29 Air
  IC50: > 100000 nM
HT29 cells; read-out: IC50 HT29 Anoxia
  IC50: 10000 nM
H460 cell line; [16]
  IC50: 4500 nM
H460 cell line; [17]
  IC50: 3500 nM
H460 cell line
  HCR P: 1
HT29
  HT29 HCR P: >10
HT29; [18]
  IC50: 10000 nM
HT29; [19]
  IC50: > 100000 nM

## CC(OP(=O)(NCCBr)NCCBr)c1ccc([N+](=O)[O-])cc1 (stereo not drawn) [Compound 78]
[2]
  Reduction Potentials, 100 mV/sec: −704 mV
  Reduction Potentials, 10,000 mV/sec: −746 mV
NCI-H460 cells [3]; [14]
  IC50: > 100000 nM
NCI-H460 cells [3]; [15]
  IC50: > 100000 nM

## C[C@H](CCl)NP(=O)(N[C@H](C)CCl)OCc1cnc([N+](=O)[O-])n1C [Compound 37]
NCI-H460 cells [1]; [11]
  IC50: 25000 nM
NCI-H460 cells [1]; [20]
  IC50: > 100000 nM
NCI-H460 cells [1]; [21]
  IC50: 500 nM
In vivo [8]; ip, 20 mg/kg
  AUC: 196 µg·h/mL
  Cmax: 12600 ng/mL
  Tmax: 2 min
  half-life: 23.2 min
In vivo [8]; iv, 20 mg/kg
  AUC: 172 µg·h/mL
  Cmax: 15000 ng/mL
  Tmax: 2 min
  half-life: 9 min
NCI-H460 cells [9]; NCI-H460, read-out: IC90 H460 0.6% O2
  IC90: 5000 nM
NCI-H460 cells [9]; NCI-H460, read-out: IC90 H460 Air
  IC90: 90000 nM
NCI-H460 cells [9]; NCI-H460, read-out: IC90 H460 N2
  IC90: 200 nM
NCI-H460 cells [3]; [14]
  IC50: > 100000 nM
NCI-H460 cells [3]; [15]
  IC50: 360 nM
